From patent US8247211B2, “Glycopeptide antibiotics” (American Cyanamid Company, priority 2001, dated 2012)
Values after ≈ are worked out from the molar mass of the structure shown. Each block holds one compound with its values, some of them ahead of it.

Columns and labels:
Test in all cases: In vitro antibacterial evaluation: minimum inhibitory concentration (MIC), broth dilution method
Format in all cases: cell-based
Conditions in all cases: broth dilution, 18 hours at 35° C.
[1] = test system: Escherichia coli
[2] = test system: Staphylococcus sp.
Method in brief: (§1)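 NCCLS M7-A2 broth dilution with Mueller-Hinton II, testing 64-0.06 μg/mL antibiotic against 5×10^5 CFU/mL inocula. Test strains include recent methicillin-, penicillin- or vancomycin-resistant clinical isolates. MIC is the lowest concentration preventing growth.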

[3] = test system: Streptococcus sp.
Method in brief: as §1

[4] = test system: Enterococcus sp.
Method in brief: as §1

[5] = Streptococcus agalactiae (GC 4564)
[6] = Streptococcus pneumoniae (ATCC 6301)
[7] = Streptococcus pneumoniae (GC 1894)
[8] = Streptococcus pneumoniae (GC 4565)
[9] = Streptococcus pyogenes (GC 4563)
[10] = Enterococcus faecalis (ATCC 29212)
[11] = Enterococcus faecalis (GC 2242)
[12] = Enterococcus faecalis (GC 2691)
[13] = Enterococcus faecalis (GC 4553)
[14] = Enterococcus faecalis (GC 6189)

MIC Escherichia coli (ATCC 25922) [1]: 32 µg/mL (≈ 29.4 µM)
MIC Escherichia coli (GC 4559) [1]: 32 µg/mL (≈ 29.4 µM)
MIC Escherichia coli (GC 4560) [1]: 8 µg/mL (≈ 7.34 µM)
MIC Staphylococcus aureus-SMITH (GC 4543) ([2]; strain GC 4543): 8 µg/mL (≈ 7.34 µM)
MIC Coagulase Negative Staphylococcus (GC 4547) ([2]; strain GC 4547): 8 µg/mL (≈ 7.34 µM)
MIC Coagulase Negative Staphylococcus (GC 4548) ([2]; strain GC 4548): 4 µg/mL (≈ 3.67 µM)
MIC Coagulase Negative Staphylococcus (GC 4549) ([2]; strain GC 4549): 16 µg/mL (≈ 14.7 µM)
MIC Coagulase Negative Staphylococcus (GC 4551) ([2]; strain GC 4551): 8 µg/mL (≈ 7.34 µM)
MIC Coagulase Negative Staphylococcus (GC 6257) ([2]; strain GC 6257): 4 µg/mL (≈ 3.67 µM)
MIC Staphylococcus aureus-SMITH (GC 4543) ([2]; strain SMITH GC 4543): 8 µg/mL (≈ 7.34 µM)
MIC Streptococcus agalactiae (GC 4564) [3, 5]: 8 µg/mL (≈ 7.34 µM)
MIC Streptococcus pneumoniae (ATCC 6301) [3, 6]: 8 µg/mL (≈ 7.34 µM)
MIC Streptococcus pneumoniae (GC 1894) [3, 7]: 16 µg/mL (≈ 14.7 µM)
MIC Streptococcus pneumoniae (GC 4565) [3, 8]: 16 µg/mL (≈ 14.7 µM)
MIC Streptococcus pyogenes (GC 4563) [3, 9]: 4 µg/mL (≈ 3.67 µM)
MIC Streptococcus agalactiae (GC 4564) [3]: 8 µg/mL (≈ 7.34 µM)
MIC Streptococcus pneumoniae (ATCC 6301) [3]: 8 µg/mL (≈ 7.34 µM)
MIC Streptococcus pneumoniae (GC 1894) [3]: 16 µg/mL (≈ 14.7 µM)
MIC Streptococcus pneumoniae (GC 4565) [3]: 16 µg/mL (≈ 14.7 µM)
MIC Streptococcus pyogenes (GC 4563) [3]: 4 µg/mL (≈ 3.67 µM)
MIC Enterococcus avium (GC 4558) ([4]; Enterococcus avium (GC 4558)): 16 µg/mL (≈ 14.7 µM)
MIC Enterococcus faecalis (ATCC 29212) [4, 10]: 64 µg/mL (≈ 58.7 µM)
MIC Enterococcus faecalis (GC 2242) [4, 11]: 32 µg/mL (≈ 29.4 µM)
MIC Enterococcus faecalis (GC 2691) [4, 12]: 32 µg/mL (≈ 29.4 µM)
MIC Enterococcus faecalis (GC 3059) ([4]; Enterococcus faecalis (GC 3059)): 64 µg/mL (≈ 58.7 µM)
MIC Enterococcus faecalis (GC 4552) ([4]; Enterococcus faecalis (GC 4552)): 64 µg/mL (≈ 58.7 µM)
MIC Enterococcus faecalis (GC 4553) [4, 13]: 16 µg/mL (≈ 14.7 µM)
MIC Enterococcus faecalis (GC 4554) ([4]; Enterococcus faecalis (GC 4554)): 64 µg/mL (≈ 58.7 µM)
MIC Enterococcus faecalis (GC 6189) [4, 14]: 32 µg/mL (≈ 29.4 µM)
MIC Enterococcus faecium (GC 2243) ([4]; Enterococcus faecium (GC 2243)): 32 µg/mL (≈ 29.4 µM)
MIC Enterococcus faecium (GC 4556) ([4]; Enterococcus faecium (GC 4556)): 64 µg/mL (≈ 58.7 µM)
MIC Enterococcus faecium (GC 4557) ([4]; Enterococcus faecium (GC 4557)): 8 µg/mL (≈ 7.34 µM)
MIC Enterococcus avium (GC 4558) [4]: 16 µg/mL (≈ 14.7 µM)
MIC Enterococcus faecalis (ATCC 29212) [4]: 64 µg/mL (≈ 58.7 µM)
MIC Enterococcus faecalis (GC 2242) [4]: 32 µg/mL (≈ 29.4 µM)
MIC Enterococcus faecalis (GC 2691) [4]: 32 µg/mL (≈ 29.4 µM)
MIC Enterococcus faecalis (GC 3059) [4]: 64 µg/mL (≈ 58.7 µM)
MIC Enterococcus faecalis (GC 4552) [4]: 64 µg/mL (≈ 58.7 µM)
MIC Enterococcus faecalis (GC 4553) [4]: 16 µg/mL (≈ 14.7 µM)
MIC Enterococcus faecalis (GC 4554) [4]: 64 µg/mL (≈ 58.7 µM)
MIC Enterococcus faecalis (GC 6189) [4]: 32 µg/mL (≈ 29.4 µM)
MIC Enterococcus faecium (GC 2243) [4]: 32 µg/mL (≈ 29.4 µM)
MIC Enterococcus faecium (GC 4556) [4]: 64 µg/mL (≈ 58.7 µM)
MIC Enterococcus faecium (GC 4557) [4]: 8 µg/mL (≈ 7.34 µM)
SMILES: CC(c1ccccc1)C1NC(=O)CNC(=O)C(CO)NC(=O)C(C(O)C2CNC(=N)N2C2OC(CO)C(O)C(O)C2O)NC(=O)C(C(O)C2CNC(=N)N2)NC(=O)C(Cc2ccc3oc(-c4cccc(F)c4)nc3c2)NC1=O (stereo not drawn) [Example 30, Cyclo[3-[2-(3-fluorophenyl)-1,3-benzoxazol-5-yl]alanyl-3-(2-iminoimidazolidin-4-yl)seryl-3-(3-hexopyranosyl-2-iminoimidazolidin-4-yl)serylserylglycyl-β-methylphenylalanyl]]
MIC Staphylococcus haemolyticus (GC 4546) ([2]; strain GC 4546): 4 µg/mL (≈ 3.67 µM)

MIC Escherichia coli (GC 4560) [1]: 32 µg/mL (≈ 27.2 µM)
MIC Coagulase Negative Staphylococcus (GC 4547) [2]: 8 µg/mL (≈ 6.79 µM)
MIC Coagulase Negative Staphylococcus (GC 4548) [2]: 8 µg/mL (≈ 6.79 µM)
MIC Coagulase Negative Staphylococcus (GC 4549) [2]: 16 µg/mL (≈ 13.6 µM)
MIC Coagulase Negative Staphylococcus (GC 4551) [2]: 16 µg/mL (≈ 13.6 µM)
MIC Coagulase Negative Staphylococcus (GC 6257) [2]: 4 µg/mL (≈ 3.39 µM)
MIC Staphylococcus aureus SMITH (GC 4543) [2]: 16 µg/mL (≈ 13.6 µM)
MIC Staphylococcus aureus-SMITH (GC 4543) ([2]; strain SMITH GC 4543): 16 µg/mL (≈ 13.6 µM)
MIC Streptococcus agalactiae (GC 4564) [3, 5]: 32 µg/mL (≈ 27.2 µM)
MIC Streptococcus pneumoniae (ATCC 6301) [3, 6]: 16 µg/mL (≈ 13.6 µM)
MIC Streptococcus pneumoniae (GC 1894) [3, 7]: 32 µg/mL (≈ 27.2 µM)
MIC Streptococcus pneumoniae (GC 4565) [3, 8]: 64 µg/mL (≈ 54.3 µM)
MIC Streptococcus pyogenes (GC 4563) [3, 9]: 8 µg/mL (≈ 6.79 µM)
MIC Streptococcus agalactiae (GC 4564) [3]: 32 µg/mL (≈ 27.2 µM)
MIC Streptococcus pneumoniae (ATCC 6301) [3]: 16 µg/mL (≈ 13.6 µM)
MIC Streptococcus pneumoniae (GC 1894) [3]: 32 µg/mL (≈ 27.2 µM)
MIC Streptococcus pneumoniae (GC 4565) [3]: 64 µg/mL (≈ 54.3 µM)
MIC Streptococcus pyogenes (GC 4563) [3]: 8 µg/mL (≈ 6.79 µM)
MIC Enterococcus avium (GC 4558) ([4]; Enterococcus avium (GC 4558)): 8 µg/mL (≈ 6.79 µM)
MIC Enterococcus faecalis (ATCC 29212) [4, 10]: 64 µg/mL (≈ 54.3 µM)
MIC Enterococcus faecalis (GC 2242) [4, 11]: 64 µg/mL (≈ 54.3 µM)
MIC Enterococcus faecalis (GC 2691) [4, 12]: 64 µg/mL (≈ 54.3 µM)
MIC Enterococcus faecalis (GC 4553) [4, 13]: 16 µg/mL (≈ 13.6 µM)
MIC Enterococcus faecalis (GC 6189) [4, 14]: 64 µg/mL (≈ 54.3 µM)
MIC Enterococcus faecium (GC 2243) ([4]; Enterococcus faecium (GC 2243)): 32 µg/mL (≈ 27.2 µM)
MIC Enterococcus faecium (GC 4556) ([4]; Enterococcus faecium (GC 4556)): 4 µg/mL (≈ 3.39 µM)
MIC Enterococcus faecium (GC 4557) ([4]; Enterococcus faecium (GC 4557)): 4 µg/mL (≈ 3.39 µM)
MIC Enterococcus avium (GC 4558) [4]: 8 µg/mL (≈ 6.79 µM)
MIC Enterococcus faecalis (ATCC 29212) [4]: 64 µg/mL (≈ 54.3 µM)
MIC Enterococcus faecalis (GC 2242) [4]: 64 µg/mL (≈ 54.3 µM)
MIC Enterococcus faecalis (GC 2691) [4]: 64 µg/mL (≈ 54.3 µM)
MIC Enterococcus faecalis (GC 4553) [4]: 16 µg/mL (≈ 13.6 µM)
MIC Enterococcus faecalis (GC 6189) [4]: 64 µg/mL (≈ 54.3 µM)
MIC Enterococcus faecium (GC 2243) [4]: 32 µg/mL (≈ 27.2 µM)
MIC Enterococcus faecium (GC 4556) [4]: 4 µg/mL (≈ 3.39 µM)
MIC Enterococcus faecium (GC 4557) [4]: 4 µg/mL (≈ 3.39 µM)
SMILES: CC(c1ccccc1)C1NC(=O)CNC(=O)C(CO)NC(=O)C(C(O)C2CNC(=N)N2C2OC(CO)C(O)C(O)C2O)NC(=O)C(C(O)C2CNC(=N)N2)NC(=O)C(Cc2ccc3oc(-c4ccc(OCc5ccccc5)cc4)nc3c2)NC1=O (stereo not drawn) [Example 31, Cyclo[3-[2-[4-(phenylmethoxy)phenyl]-1,3-benzoxazol-5-yl]alanyl-3-(2-iminoimidazolidin-4-yl)seryl-3-(3-hexopyranosyl-2-iminoimidazolidin-4-yl)serylserylglycyl-β-methyl-phenylalanyl]]
MIC Staphylococcus haemolyticus (GC 4546) [2]: 8 µg/mL (≈ 6.79 µM)
